The values that follow come from patent US7351714B2, “7-imino derivatives of camptothecin having antitumor activity” (priority 2004, dated 2008).

One data set relates to NCI H460. As to the kind of experiment: antiproliferative activity test (cytotoxic activity) on human tumour cells. The data set is classed as cell-based. Conditions: H-460. The procedure:
Cytotoxic activity of the compounds of the present invention was assayed in cell systems of human tumour cells, using the antiproliferative activity test as a method of evaluation of the cytotoxic potential.
The cell line used is a lung non-small cell carcinoma that belongs to non-small cells hystotype named NCI H460.

Data set [1] relates to MKN-28 human gastric carcinoma. As to the kind of experiment: antitumor activity per os in athymic nude mice bearing s.c. tumor xenograft. In kind it is in vivo. The conditions noted are these: q4dx4; for TVI % (Tumor volume inhibition % in treated over control tumors): 11-12 day after last treatment. From the text: A compound is considered active when TVI %≧50.
The conditions of data set [2]: cited from earlier work.

Each structure is given as a SMILES string.

In turn, `CC[C@@]1(O)C(=O)OCc2c1cc1n(c2=O)Cc2c-1nc1ccccc1c2C=Nc1ccccc1` [ST1546, 7-phenyliminomethylcamptothecin] yielded an IC50 in the data set with NCI H460 of 130 nM.
Same read-out and setting: the figure for `CC[C@@]1(O)C(=O)OCc2c1cc1n(c2=O)Cc2c-1nc1ccccc1c2C=Nc1ccc([N+](=O)[O-])cc1` [ST1561, 7-(4-nitrophenyl)iminomethylcamptothecin] is 280 nM.
Take `CC[C@@]1(O)C(=O)OCc2c1cc1n(c2=O)Cc2c-1nc1ccccc1c2C=Nc1ccccc1SSc1ccccc1N` [ST1737, 7-2-(2-aminophenyldithio)phenyliminomethylcamptothecin]: the IC50 with NCI H460 is 17 nM. For the same compound, the “Tox (Dead/treated mice)” value in data set [1] (4 mg/kg per os), in data set [1] (7 mg/kg per os) and in data set [1] (12 mg/kg per os) was 0/4 throughout. The figures for the “TVI % (Tumor volume inhibition % in treated over control tumors)” value in data set [1] (4 mg/kg per os), in data set [1] (7 mg/kg per os) and in data set [1] (12 mg/kg per os) were 69%, 56% and 68%, respectively. Moreover, the “BWL % (Body weight loss % induced by drug treatment)” value in data set [1] (12 mg/kg per os) turned out to be 4%.
Turning to `CC[C@@]1(O)C(=O)OCc2c1cc1n(c2=O)Cc2c-1nc1ccccc1c2C=Nc1ccc(SSc2ccc(N)cc2)cc1` [ST2034, 7-4-(4-aminophenyldithio)phenyliminomethylcamptothecin], inhibition in the data set on NCI H460 was half-maximal at 390 nM (IC50).
For `CC[C@@]1(O)C(=O)OCc2c1cc1n(c2=O)Cc2c-1nc1ccccc1c2C=Nc1ccc(Sc2ccc(N)cc2)cc1` [ST2069, 7-4-(4-aminophenylthio)phenyliminomethylcamptothecin], in the data set with NCI H460, the IC50 was 240 nM.
Consider `CC[C@@]1(O)C(=O)OCc2c1cc1n(c2=O)Cc2c-1nc1ccccc1c2C=Nc1ccccc1SC` [ST2138, 7-(2-methylthiophenyl)iminomethylcamptothecin], for which, in the data set on NCI H460, half-maximal inhibition (IC50) required 60 nM.
In turn, `CC[C@@]1(O)C(=O)OCc2c1cc1n(c2=O)Cc2c-1nc1ccccc1c2C=Nc1ccccc1C` [ST2212, 7-(2-methylphenyl)iminomethylcamptothecin] displayed an IC50 in the data set with NCI H460 of 100 nM.
In turn, `CC[C@@]1(O)C(=O)OCc2c1cc1n(c2=O)Cc2c-1nc1ccccc1c2C=Nc1ccccc1Cl` [ST2228, 7-(2-chlorophenyl)iminomethylcamptothecin] returned an IC50 in the data set on NCI H460 of 70 nM.
In turn, `CC[C@@]1(O)C(=O)OCc2c1cc1n(c2=O)Cc2c-1nc1ccccc1c2C=Nc1ccccc1I` [ST2316, 7-(2-iodophenyl)iminomethylcamptothecin] came in with an IC50 in the data set with NCI H460 of 60 nM.
In the data set with NCI H460, `CC[C@@]1(O)C(=O)OCc2c1cc1n(c2=O)Cc2c-1nc1ccccc1c2C=Nc1c(C)cccc1C` [ST2317, 7-(2,6-dimethylphenyl)iminomethylcamptothecin] gave an IC50 of 150 nM.
On to `CC[C@@]1(O)C(=O)OCc2c1cc1n(c2=O)Cc2c-1nc1ccccc1c2C=Nc1ccccc1OC` [ST2343, 7-(2-methoxyphenyl)iminomethylcamptothecin], for which half-maximal inhibition in the data set on NCI H460 (IC50) was put at 60 nM.
In the case of `CC[C@@]1(O)C(=O)OCc2c1cc1n(c2=O)Cc2c-1nc1ccccc1c2C=Nc1ccccc1C(C)(C)C` [ST2388, 7-(2-t-butylphenyl)iminomethylcamptothecin], the IC50 in the data set with NCI H460 was found to be 70 nM.
With `CC[C@@]1(O)C(=O)OCc2c1cc1n(c2=O)Cc2c-1nc1ccccc1c2C=Nc1ccccc1O` [ST2389, 7-(2-hydroxyphenyl)iminomethylcamptothecin], in the data set with NCI H460, 60 nM corresponded to half-maximal inhibition (IC50).
In the data set with NCI H460, `CC[C@@]1(O)C(=O)OCc2c1cc1n(c2=O)Cc2c-1nc1ccccc1c2C=Nc1ccc(Cl)cc1` [ST2412, 7-(4-chlorophenyl)iminomethylcamptothecin] yielded an IC50 of 80 nM.
In the data set with NCI H460, `CC[C@@]1(O)C(=O)OCc2c1cc1n(c2=O)Cc2c-1nc1ccccc1c2C=Nc1ccc(OC)cc1` [ST2477, 7-(4-methoxyphenyl)iminomethylcamptothecin] returned an IC50 of 160 nM.
The compound `CCC1(O)C(=O)OCc2c1cc1n(c2=O)Cc2c-1nc1ccccc1c2C=Nc1ccc(C)cc1` (stereo not shown) [ST2478, 7-(4-methylphenyl)iminomethylcamptothecin] returned an IC50 in the data set with NCI H460 of 180 nM.
Turning to `CCC1(O)C(=O)OCc2c1cc1n(c2=O)Cc2c-1nc1ccccc1c2C=Nc1ccc(O)cc1` (stereo not shown) [ST 2616, 7-(4-hydroxyphenyliminomethyl)-camptothecin], in the data set on NCI H460, 220 nM corresponded to half-maximal inhibition (IC50).
Regarding `CCC1(O)C(=O)OCc2c1cc1n(c2=O)Cc2c-1nc1ccccc1c2C=Nc1ccc(C(C)(C)C)cc1` (stereo not shown) [ST 2619, 7-(4-tert-butylphenyliminomethyl)-camptothecin], half-maximal inhibition with NCI H460 (IC50) was put at 90 nM.
As for `CCC1(O)C(=O)OCc2c1cc1n(c2=O)Cc2c-1nc1ccccc1c2C=Nc1ccc(SC)cc1` (stereo not shown) [ST 2667, 7-(4-methylthiophenyliminomethyl)-camptothecin], half-maximal inhibition with NCI H460 (IC50) required 74 nM.
Turning to `CC[C@@]1(O)C(=O)OCc2c1cc1n(c2=O)Cc2cc3c(CN(C)C)c(O)ccc3nc2-1` [Topotecan], the “level in the cerebrospinal fluid with respect to plasma” value in data set [2] (10 minutes after infusion) is on record as 30%. In addition, the “lactone form hydrolysed to open ring” value in data set [2] (30 minutes after infusion) is given as 50%.

As usually defined, the IC50 is the concentration needed to halve the response being measured. A low value points to greater potency.
